Data reported in patent publication US9480280B2, “Taste modifiers” (Givaudan S.A., priority 2012, dated 2016).

Legend:
[1] = Rebaudioside A evaluation (taste descriptors); conditions: compared to base without compound
Description: A tasting base was prepared with 300 ppm Rebaudioside A in ater. Compounds were added to the base in the concentrations indicated in the table and compared to the base without compound added.

[2] = Kefir evaluation of creamyness/mouthfeel enhancement; conditions: compared to base without compound
Description: A commercial Kefir drink was used as a base to evaluate the creamyness/mouthfeel enhancement properties of the compounds. Samples with compound were compared to the base without compound added.

[3] = Sucralose evaluation of bitter masking; conditions: compared to base without compound
Description: Compounds were prepared in a sucralose base containing 80 ppm sucralose in water. Compounds were calculated in the base and compared to the base without may compound added.
A solution containing 80 ppm sucralose in water was used as a base to evaluate the bitter masking properties of the compounds. Samples with compound were compared to the base without compound added.

[4] = Skim milk evaluation of creamyness/mouthfeel enhancement; conditions: 10 ppm in skim milk, compared to base without compound
Description: Skim milk was used as a base to evaluate the creamyness/mouthfeel enhancement properties of the compounds. Samples with compound were compared to the base without compound added.

[5] = Red Bull drink evaluation of masking; conditions: compared to base without compound
Description: A commercial Red Bull™ Energy drink was used as a base to evaluate the masking properties of the compounds. Compounds were added to the base in the concentrations indicated in the table and compared to the base without compound added.

[6] = Sweetened yogurt evaluation of creamyness/mouthfeel enhancement; conditions: 10 ppm in yogurt with 5% sucrose and 0.03% creamy mouthfeel flavor, compared to base without compound
Description: Sweetened yogurt with flavor was used as a base to evaluate the creamyness/mouthfeel enhancement properties of the compounds. The yogurt base was sweetened with 5% sucrose and 0.03% creamy mouthfeel flavor (Givaudan 97584209). Samples with compound were compared to the sweetened base without compound added.

[7] = Low fat milk evaluation of creamyness/mouthfeel enhancement; conditions: 4 ppm in low fat milk (1.5-2% fat), compared to base without compound
Description: Low fat milk (1.5-2% fat) was used as a base to evaluate the creamyness/mouthfeel enhancement properties of the compounds. Samples with compound were compared to the base without compound added.

[8] = J. Agr. Food. Chem. 2007, 55, 9634-9645; cited from earlier work
[9] = 2 ppm in 300 ppm Rebaudioside A in water
[10] = 5 ppm in 300 ppm Rebaudioside A in water
[11] = 10 ppm in 300 ppm Rebaudioside A in water
[12] = 2 ppm in commercial Kefir drink
[13] = 5 ppm in commercial Kefir drink
[14] = 2 ppm in 80 ppm sucralose in water
[15] = 5 ppm in 80 ppm sucralose in water
[16] = 10 ppm in 80 ppm sucralose in water
[17] = 10 ppm in Red Bull Energy drink

Row | SMILES | Taste Description [1, 9] | Taste Description [1, 10] | Taste Description [1, 11] | Taste Description [2, 12] | Taste Description [2, 13] | Taste Description [3, 14] | Taste Description [3, 15] | Taste Description [3, 16] | Taste Description [4] | Taste Description ([5]; 5 ppm in Red Bull Energy drink) | Taste Description [5, 17] | Taste Description [6] | Taste Description [7] | effect on cream flavour / creaminess [8]
1 | CC(O)CCCCC1CCC(=O)O1 (stereo not drawn) [9-hydroxy gamma decalactone, 5-(5-hydroxyhexyl)dihydrofuran-2(3H)-one] | Slight fatty note at end. | Not much | High offnote, changes | More creamy than control, upfront | More dairy note, more mid body. | Floral, little masking, waxy, | Some effect | High offnote. masks | No mouthfeel | Less sweetness, strong linger | Good masking, offnote | – | – | –
2 | CCC(O)CCCCCCC(=O)O (stereo not drawn) [8-Hydroxy decanoic acid, 8-hydroxydecanoic Acid] | Less bitter, less bitter | Less bitter, less bitter | Helps overall especially | – | Creamy. fatty mouthfeel. good | Less lingering, more | Velvety mouthfeel. very full. | No masking, adds | Some mouthfeel effect | – | – | Lingering waxy profile, fattier. | Slight mouthfeel | –
3 | CC(O)CCCCCCCC(=O)O (stereo not drawn) [9-Hydroxy decanoic acid, 9-hydroxydecanoic Acid] | Less bitter, lingering, more | Less bitter, lingernig, waxy, | Offtaste, not much | Very creamy, slight mouthfeel, more | Very creamy, mouth-coating, smooth, | Less bitter. lingering, more | Backend masks lingering. | Nice mouthfeel, full upfront | Some mouthfeel effect | – | Masks better than control | Lingering waxy profile, fattier. | Slightly more mouthfeel | –
4 | CCC(O)CCCC1CCC(=O)O1 (stereo not drawn) [8-hydroxy gamma decalactone, 5-(4-hydroxyhexyl)dihydrofuran-2(3H)-one] | Masks lots of bitter, less | Some masking | High offnote, masks more | Much creamier, fattier, fuller, | more mid body, creamier | Floral, little masking, waxy, | Some effect | Masks sweetness, floral, | Some mouthfeel effect | Good masking. less sweet | Offnote, similar to control | – | – | –
5 | CCCCCCCCCC1CCCC(=O)O1 (stereo not drawn) [δ-tetradecalactone] | – | – | – | – | – | – | – | – | – | – | – | – | – | able to enhance the retronasal cream flavour
